In patent US20030018008A1, “Formulations of adenosine a1 agonists” (priority 1999, published 2003):

System: carrageenan-induced oedema and allodynia
Assay: Carrageenan model: weight bearing (allodynia) and paw oedema of the inflamed hind paw
Assay type: in vivo, rat
Conditions: for % Weight on inflammed paw (Allodynia): 3 h after intraplantar 2% carrageenan, 50% = no pain; for % Inhibition of carrageenan-induced allodynia / % Inhibition of carrageenan-induced oedema: compared to vehicle control; for % Inhibition of carrageenan-induced oedema: plethysmometer
Protocol: Carrageenan model for (2S, 3S, 4R, 5R)-2-(5 tert-butyl-[1,3,4]oxadiazol-2-yl)-5-[6-(4-chloro-2-fluoro-phenylamino)-purin-9-yl]-tetrahvdro-furan-3,4-diol (Adenosine A1 agonist) and alosetron.
Male Random Hooded rats (180-220 g) were used. The test compound or vehicle was administered 30 mins before the 2nd test compound or vehicle. The test compounds and vehicles used were: (i) Compound A in 1% DMSO, 66% Peg400, 33% distilled water and (ii) alosetron in saline. Both test compounds were administered via the oral route. After a further 30 mins 100 ul of 2% carrageenan was injected intraplantar into the left hind paw and the animals were then returned to their cages. Three hours later, behavioural testing of the carrageenan-induced decrease in weight on the inflamed left hind paw (% weight on the inflammed left hind paw) and associated oedema was assessed. Weight bearing was measured using the dual channel weight averager and paw oedema was assessed using a plethysmometer. The dual channel weight averager is commercially available and is described in the following abstract: Validation of the dual channel weight averager as an instrument for the measurement of inflammatory pain, N. M. Clayton et al., 1997 British Journal Pharmacol. 120, 219P.
Note: In the absense of pain, weight on the hind paws would be evenly distributed, i.e. 50% on each hind paw.
Note: Oedema is the presence of abnormally large amounts of fluid in the intercellular tissue spaces of the body and in the present example is used to provide a measure of inflammation (or anti-oedemic). Allodynia is a sensation of pain resulting from a non-injurious stimulus such as normal heat, cold or pressure on skin and in the present example the weight-bearing (allodynia) effect in used to provide a measure of analgesia.

Row | Compound | % Weight on inflammed paw (Allodynia) (Alosetron 0.3 mg/kg oral) | % Inhibition of carrageenan-induced allodynia (Alosetron 0.3 mg/kg oral) | % Inhibition of carrageenan-induced oedema (Alosetron 0.3 mg/kg oral) | % Weight on inflammed paw (Allodynia) (Compound A 0.4 mg/kg oral) | % Inhibition of carrageenan-induced allodynia (Compound A 0.4 mg/kg oral) | % Inhibition of carrageenan-induced oedema (Compound A 0.4 mg/kg oral)
1 | Cc1[nH]cnc1CN1CCc2c(c3ccccc3n2C)C1=O [Alosetron, 2,3,4,5-tetrahydro-5-methyl-2-[(5-methyl-1H-imidazol-4-yl)methyl]-1H-pyrido[4,3-b]indol-1-one] | 33.6 ± 5.5% | 45.1 ± 18.4% | 28.2 ± 6.3% |  |  | 
2 | CC(C)(C)c1nnc([C@H]2O[C@@H](n3cnc4c(Nc5ccc(Cl)cc5F)ncnc43)[C@H](O)[C@@H]2O)o1 [Compound A, (2S, 3S, 4R, 5R)-2-(5 tert-butyl-[1,3,4]oxadiazol-2-yl)-5-[6-(4-chloro-2-fluoro-phenylamino)-purin-9-yl]-tetrahydro-furan-3,4-diol] |  |  |  | 20.7 ± 4.3% | 2.1 ± 14.3% | −3.1 ± 8.2%
